Results on 34 compounds are retold here after patent US20050054696A1, “Indole compounds and medicinal use thereof” (priority 2001, published 2005).

The structures appear in SMILES notation.

The experiment addresses T1, recombinant human liver glycogen phosphorylase (HLGPa) (Homo sapiens, UniProt P06737).
T1 construct: made in house; host or cells: Sf9 insect cells (unpurified cell lysate used as enzyme solution)
T1 sequence (P06737 1-847): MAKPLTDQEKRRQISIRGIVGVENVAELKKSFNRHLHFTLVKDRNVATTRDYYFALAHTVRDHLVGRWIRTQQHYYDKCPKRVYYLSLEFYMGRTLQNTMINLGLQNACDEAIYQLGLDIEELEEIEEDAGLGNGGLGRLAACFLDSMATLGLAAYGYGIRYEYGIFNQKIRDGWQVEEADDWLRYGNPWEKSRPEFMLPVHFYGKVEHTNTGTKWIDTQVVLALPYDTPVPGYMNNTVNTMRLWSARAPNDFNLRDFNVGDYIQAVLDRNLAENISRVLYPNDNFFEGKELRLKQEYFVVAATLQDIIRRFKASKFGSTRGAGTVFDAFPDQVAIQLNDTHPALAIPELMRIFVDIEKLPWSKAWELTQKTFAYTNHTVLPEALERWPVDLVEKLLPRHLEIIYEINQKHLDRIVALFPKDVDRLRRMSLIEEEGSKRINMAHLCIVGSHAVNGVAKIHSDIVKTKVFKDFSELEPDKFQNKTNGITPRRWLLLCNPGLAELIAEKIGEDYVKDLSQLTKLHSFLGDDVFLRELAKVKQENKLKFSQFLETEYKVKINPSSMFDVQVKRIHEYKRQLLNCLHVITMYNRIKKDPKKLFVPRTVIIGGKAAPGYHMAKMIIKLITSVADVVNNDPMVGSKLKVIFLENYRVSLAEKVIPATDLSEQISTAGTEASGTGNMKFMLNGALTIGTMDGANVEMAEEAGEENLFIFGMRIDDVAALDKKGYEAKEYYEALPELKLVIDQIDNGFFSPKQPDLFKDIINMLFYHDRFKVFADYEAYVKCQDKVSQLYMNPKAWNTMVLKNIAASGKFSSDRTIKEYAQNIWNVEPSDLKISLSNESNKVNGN
As to the kind of experiment: Measurement of liver glycogen phosphorylase activity (enzyme inhibitory activity against HLGPa). It counts as biochemical. The conditions noted are these: Sf9 cell lysate expressing recombinant enzyme; reverse reaction (glycogen synthesis from G1-P), phosphate by malachite green, 60 min room temperature. Put shortly:
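Activity was run in the reverse, glycogen-synthesis direction, using Sf9 lysate expressing recombinant human liver glycogen phosphorylase (enzyme solution 80 μg/mL protein, pH 7.0). Substrate solution was Tris pH 7.2 with 1.25 mM glucose-1-phosphate, 2.5 mg/ml glycogen and 7.5 mM glucose, reacted 60 min at room temperature. Released phosphate was measured by malachite green A650, with % inhibition taken against DMSO control and no-enzyme blank.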

By IC50 is commonly meant the point on the concentration scale where inhibition reaches its midpoint. With `CNc1ccccc1C(=O)NNC(=O)c1cc2cc(Cl)ccc2[nH]1` [Example 1-53, 2-methylaminobenzoic acid 2-(5-chloro-1H-indole-2-carbonyl)hydrazide], the half-maximal inhibitory concentration (IC50) was 230 nM.

For the compound `Cc1ccccc1C(=N)NNC(=O)c1cc2cc(Cl)ccc2[nH]1` [Example 1-133, 5-chloro-1H-indole-2-carboxylic acid 2-(imino-(o-tolyl)-methyl)hydrazide], the half-maximal inhibitory concentration (IC50) is 50 nM. Regarding `Cc1ccc2[nH]c(C(=O)NNC(=O)c3ccccc3N)cc2c1` [Example 6-28, 2-aminobenzoic acid 2-(5-methyl-1H-indole-2-carbonyl)hydrazide p-toluenesulfonate], the IC50 came to 250 nM. As for `CN(C)C(=O)COc1cccc(C(=O)NNC(=O)c2cc3cc(Cl)ccc3[nH]2)c1` [Example 1-71, 2-(3-(2-(5-chloro-1H-indole-2-carbonyl)hydrazinocarbonyl)phenoxy)-N,N-dimethylacetamide], the half-inhibitory concentration (IC50) was 62 nM. Take `Nc1cccc(Cl)c1C(=O)NNC(=O)c1cc2cc(Cl)ccc2[nH]1` [Example 1-55, 2-amino-6-chlorobenzoic acid 2-(5-chloro-1H-indole-2-carbonyl)hydrazide]: the 50% inhibitory concentration (IC50) was 87 nM. On to `O=C(O)CNc1ccccc1C(=O)NNC(=O)c1cc2cc(Cl)ccc2[nH]1` [Example 1-61, 2-(2-(2-(5-chloro-1H-indole-2-carbonyl)hydrazinocarbonyl)anilino)acetic acid], for which the IC50 worked out at 49 nM. For `CN(NC(=O)c1cc2cc(Cl)ccc2[nH]1)C(=O)C1CCCCC1` [Example 1-116, cyclohexanecarboxylic acid 2-(5-chloro-1H-indole-2-carbonyl)-1-methylhydrazide], the half-inhibitory concentration (IC50) worked out at 41 nM. The same measure for `O=C(NNC(=O)c1cccc(F)c1F)c1cc2cc(Cl)ccc2[nH]1` [Example 1-91, 2,3-difluorobenzoic acid 2-(5-chloro-1H-indole-2-carbonyl)hydrazide]: 56 nM. Consider `Cc1ccc(N)c(C(=O)NNC(=O)c2cc3cc(Cl)ccc3[nH]2)c1` [Example 1-97, 2-amino-5-methylbenzoic acid 2-(5-chloro-1H-indole-2-carbonyl)hydrazide], for which the IC50 was found to be 10 nM. The same measure for `CC(=O)Nc1ccccc1C(=O)NNC(=O)c1cc2cc(Cl)ccc2[nH]1` [Example 1-47, N-(2-(2-(5-chloro-1H-indole-2-carbonyl)hydrazinocarbonyl)phenyl)acetamide]: 660 nM; for `O=C(NNC(=O)c1sccc1Cl)c1cc2cc(Cl)ccc2[nH]1` [Example 1-86, 3-chlorothiophene-2-carboxylic acid 2-(5-chloro-1H-indole-2-carbonyl)hydrazide]: 28 nM. `O=C(NN1C(=O)CCN(c2ccc(Cl)cc2)C1=O)c1cc2cc(Cl)ccc2[nH]1` [Example 3-14, 5-chloro-1H-indole-2-carboxylic acid (1-(4-chlorophenyl)-2,4-dioxoperhydropyrimidin-3-yl)amide]: the 50% inhibitory concentration (IC50) came out at 120 nM. Turning to `O=C(NN1CN(c2ccccc2)CC1=O)c1cc2cc(Cl)ccc2[nH]1` [Example 4-4, N-(1-oxo-4-phenylimidazolidin-2-yl)-5-chloro-1H-indole-2-carboxamide], the IC50 is over 100 nM.

For the compound `Cc1ccc(C(=O)NNC(=O)c2cc3cc(Cl)ccc3[nH]2)cc1` [Example 1-14, 4-methylbenzoic acid 2-(5-chloro-1H-indole-2-carbonyl)hydrazide], the half-inhibitory concentration (IC50) was 130 nM.

Turning to `O=C(NNC(=O)C1CCCCC1)c1cc2cc(Cl)ccc2[nH]1` [Example 1-23, cyclohexanecarboxylic acid 2-(5-chloro-1H-indole-2-carbonyl)hydrazide], the half-inhibitory concentration (IC50) worked out at 75 nM.

As to `O=C(NN1C(=O)N[C@H](Cc2ccccc2)C1=O)c1cc2cc(Cl)ccc2[nH]1` [Example 4-10, 5-chloro-1H-indole-2-carboxylic acid ((4R)-4-benzyl-2,5-dioxoimidazolidin-1-yl)amide], the concentration for half-maximal inhibition (IC50) is over 100 nM. As for `O=C(Nn1c(=O)[nH]c2c(Cl)cccc2c1=O)c1cc2cc(Cl)ccc2[nH]1` [Example 2-20, 5-chloro-1H-indole-2-carboxylic acid (8-chloro-1,2,3,4-tetrahydro-2,4-dioxoquinazolin-3-yl)amide], the IC50 turned out to be 22 nM.

Regarding `O=C(NNC(=O)c1cc2cc(OCc3ccccc3)ccc2[nH]1)c1ccccc1` [Example 1-123, benzoic acid 2-(5-benzyloxy-1H-indole-2-carbonyl)hydrazide], the IC50 is over 100 nM.

Take `O=C(Nc1ccccc1C(=O)NNC(=O)c1cc2cc(Cl)ccc2[nH]1)OC(CO)CO` [Example 1-75, 1,3-dihydroxy-2-propyl (2-(2-(5-chloro-1H-indole-2-carbonyl)hydrazinocarbonyl)phenyl)carbamate]: the IC50 worked out at 250 nM. On to `O=C(NN1C(=O)CCN(c2cccc(F)c2)C1=O)c1cc2cc(Cl)ccc2[nH]1` [Example 3-7, 5-chloro-1H-indole-2-carboxylic acid (1-(3-fluorophenyl)-2,4-dioxoperhydropyrimidin-3-yl)amide], for which the IC50 turned out to be 50 nM. For the compound `O=C(Nc1ccccc1C(=O)NNC(=O)c1cc2cc(Cl)ccc2[nH]1)Oc1ccccc1` [Example 1-109, phenyl (2-(2-(5-chloro-1H-indole-2-carbonyl)hydrazinocarbonyl)phenyl)carbamate], the IC50 turned out to be 140 nM.

Regarding `O=C(NNC(=O)c1ccccc1O)c1cc2cc(Cl)ccc2[nH]1` [Example 1-3, 2-hydroxybenzoic acid 2-(5-chloro-1H-indole-2-carbonyl)hydrazide], the concentration for half-maximal inhibition (IC50) amounted to 37 nM. Regarding `N=C(NNC(=O)c1cc2cc(Cl)ccc2[nH]1)c1ccco1` [Example 1-137, 5-chloro-1H-indole-2-carboxylic acid 2-((furan-2-yl)-imino-methyl)hydrazide], the half-maximal inhibitory concentration (IC50) is 330 nM.

With `CCCn1c(=O)n(NC(=O)c2cc3cc(Cl)ccc3[nH]2)c(=O)c2ccccc21` [Example 2-30, 5-chloro-1H-indole-2-carboxylic acid (1,2,3,4-tetrahydro-2,4-dioxo-1-propylquinazolin-3-yl)amide], the IC50 was 88 nM.

With `CCc1ccc2[nH]c(C(=O)NNC(=O)c3ccccc3N)cc2c1` [Example 1-66, 2-aminobenzoic acid 2-(5-ethyl-1H-indole-2-carbonyl)hydrazide], the half-inhibitory concentration (IC50) is over 100 nM.

With `COC(=O)COc1cccc(C(=O)NNC(=O)c2cc3cc(Cl)ccc3[nH]2)c1` [Example 1-69, 2-(3-(2-(5-chloro-1H-indole-2-carbonyl)hydrazinocarbonyl)phenoxy)acetic acid methyl ester], the IC50 was 150 nM. As to `O=C(NNC(=O)c1cc2cc(Cl)ccc2[nH]1)c1ccoc1` [Example 1-84, furan-3-carboxylic acid 2-(5-chloro-1H-indole-2-carbonyl)hydrazide], the IC50 amounted to 20 nM.

For `O=C(NNC(=O)c1cc2cc(Cl)ccc2[nH]1)c1cccc(F)c1` [Example 1-28, 3-fluorobenzoic acid 2-(5-chloro-1H-indole-2-carbonyl)hydrazide], the half-inhibitory concentration (IC50) worked out at 49 nM. Regarding `O=C(NN1C(=O)[C@H]2CCCN2C1=O)c1cc2cc(Cl)ccc2[nH]1` [Example 4-8, 5-chloro-1H-indole-2-carboxylic acid ((4R)-1,3-dioxo-perhydropyrrolo[1,2-c]imidazol-2-yl)amide], the IC50 is over 100 nM. In the case of `N=C(NNC(=O)c1cc2cc(Cl)ccc2[nH]1)c1c(F)cccc1Cl` [Example 1-138, 5-chloro-1H-indole-2-carboxylic acid 2-((2-chloro-6-fluorophenyl)-imino-methyl)hydrazide], the half-maximal inhibitory concentration (IC50) amounted to 460 nM. Turning to `N=C(NNC(=O)c1cc2cc(Cl)ccc2[nH]1)c1cccc(F)c1` [Example 1-127, 5-chloro-1H-indole-2-carboxylic acid 2-((3-fluorophenyl)-imino-methyl)hydrazide], the concentration for half-maximal inhibition (IC50) is 84 nM. With `O=C(NNC(=O)C1(c2ccccc2)CCCCC1)c1cc2cc(Cl)ccc2[nH]1` [Example 5-14, 5-chloro-1H-indole-2-carboxylic acid 2-((1-phenylcyclohexane)carbonyl)hydrazide], the half-maximal inhibitory concentration (IC50) came to 300 nM. In the case of `O=C(NNC(=O)c1cc(F)c(F)c(F)c1F)c1cc2cc(Cl)ccc2[nH]1` [Example 1-94, 2,3,4,5-tetrafluorobenzoic acid 2-(5-chloro-1H-indole-2-carbonyl)hydrazide], the half-maximal inhibitory concentration (IC50) turned out to be 520 nM. In the case of `CC(C(=O)NNC(=O)c1cc2cc(Cl)ccc2[nH]1)c1ccccc1` (stereo not shown) [Example 5-15, 5-chloro-1H-indole-2-carboxylic acid 2-(2-phenylpropanoyl)hydrazide], the IC50 is 63 nM.
